In brackets after ≈: the same amount, converted by molar mass.
How the values were obtained:
[1] = system: BCG Rv3790/DprE1 Cys387Ser (BN2); assay type: cell-based, M. bovis BCG
[2] = system: M. smegmatis Rv3790/DprE1 Cys387Ser (MN84); assay type: cell-based
[3] = system: M. smegmatis Rv3790/DprE1 Cys387Gly (MN47); assay type: cell-based

Compound | MIC [1] [µg/mL] | MIC [2] [µg/mL] | MIC [3] [µg/mL]
O=C(NCCOCc1ccccc1)c1cc([N+](=O)[O-])cc([N+](=O)[O-])c1 [Compound 7, N-(2-(benzyloxy)ethyl)-3,5-dinitrobenzamide] | > 10 | – | –
COc1ccc(OCCNC(=O)c2cc([N+](=O)[O-])cc([N+](=O)[O-])c2)cc1 [Compound 8, N-(2-(4-methoxyphenoxy)ethyl)-3,5-dinitrobenzamide] | > 10 | – | –
CO[C@H]1/C=C/O[C@@]2(C)Oc3c(C)c(O)c4c(O)c(c(/C=N/N5CCN(C)CC5)c(O)c4c3C2=O)NC(=O)/C(C)=C\C=C\[C@H](C)[C@H](O)[C@@H](C)[C@@H](O)[C@@H](C)[C@H](OC(C)=O)[C@@H]1C [Rifampin] | 0.31 (≈ 0.377 µM) | 0.31 (≈ 0.377 µM) | 0.31 (≈ 0.377 µM)

Reference: PMC2763345 (PLoS Pathogens, 2009)
